Measured values reported in patent US20060014717A1, “Therapeutic compositions for use in prophylaxis or treatment of diarrheas” (priority 2002, published 2006).

Assays:
diarrheagenic E. coli = assay: Inhibition with soluble oligosaccharides in the chromatogram binding assay; set-up: species or system Escherichia coli
Method: (§1) Glycosphingolipid Binding Assays—Binding of ^35S-labeled bacteria to glycosphingolipids on thin-layer chromatograms was done as reported (7). Dried chromatograms were dipped for 1 min in diethylether/n-hexane (1:5, by volume) containing 0.5% (w/v) polyisobutylmethacrylate (Aldrich Chem. Comp. Inc., Milwaukee, Wis.). After drying, the chromatograms were soaked in PBS containing 2% bovine serum albumin (w/v), 0.1% NaN3 (w/v) and 0.1% Tween 20 (by volume) for 2 h at room temperature. The chromatograms were subsequentely covered with radiolabeled bacteria diluted in PBS (2-5×10^6 cpm/ml). Incubation was done for 2 h at room temperature, followed by repeated washings with PBS. The chromatograms were thereafter autoradiographed using XAR-5 X-ray films (Eastman Kodak, Rochester, N.Y.) for 12 h. Autoradiograms were replicated using a CCD camera (Dage-MTI, Inc., Michigan City, Ind.), and analysis of the images was performed using the public domain NIH Image program (developed at the U.S. National Institutes of Health, and available at http://rsb.info.nih.eov/nih-imaee/).
The final concentrations of the inhibiting oligosaccharides on the TLC-plate were 0.3 mM. […] Thereafter the chromatogram binding assay was performed as described above.

[1] = tested on: diarrheagenic Escherichia coli CCUG 38068 (EPEC); assay: Chromatogram binding assay of 35S-labeled bacteria to glycosphingolipids on thin-layer plates; conditions: thin-layer chromatograms, TLC overlay
Method: (§2) Culture Conditions and Labeling—The E. coli strains were cultured on Luria-agar with the addition of 10 μl ^35S-methionine (400 tici; Amersham Pharmacia Biotech, U.K.) at 37° C. for 12 h. The bacteria were harvested by scraping, washed three times with phosphate-buffered saline (PBS), pH 7.3, and thereafter resuspended in PBS (with or without 1% mannose (w/v)) to 1×10^8 CFU/ml. The specific activities of the suspensions were approximately 1 cpm per 100 bacteria.
(§3) Thin-Layer Chromatography—Thin-layer chromatography of glycosphingolipids was performed on glass- or aluminum-backed silica gel 60 HPTLC plates (Merck, Darmstadt, Germany), using chloroform/methanol/water 60:35:8 (by volume) as solvent system. Chemical detection was done with anisaldehyde (6).
as §1

[2] = tested on: diarrheagenic Escherichia coli CCUG 38077 (EAEC); assay: as above; conditions: thin-layer chromatograms, TLC overlay
Method: as §2, §3, §1

EPEC strain = conditions: listed in decreasing order of activity; cited from earlier work

Compound | Binding of strain CCUG 38068 to glycosphingolipids and neoglycolipids, in words [1] | Binding of strain CCUG 38077 to glycosphingolipids and neoglycolipids, in words [2] | Binding of an EPEC strain to commercial glycolipids (EPEC strain) | further results
CC(=O)N[C@H]1[C@H](O[C@H]2[C@@H](O)[C@@H](CO)O[C@@H](O[C@H]3[C@H](O)[C@@H](O)C(O)O[C@@H]3CO)[C@@H]2O)O[C@H](CO)[C@@H](O[C@@H]2O[C@H](CO)[C@H](O)[C@H](O)[C@H]2O)[C@@H]1O (mixture of isomers) [Lacto-N-neotetraose, Galβ4GlcNAcβ3Galβ4Glc] | – | – | – | Inhibition of binding to neolacto glycolipid (diarrheagenic E. coli; 0.3 mM final concentration): inhibited binding
CC(=O)N[C@H]1C(O)O[C@H](CO)[C@H](O)[C@@H]1O[C@@H]1O[C@H](CO)[C@H](O)[C@H](O)[C@H]1O (some centres unmarked) [Galβ3GalNAc] | – | – | – | Activity as monovalent inhibitor against the Ganglio-receptor glycolipid (diarrheagenic E. coli; 0.3 mM concentration): not active
CCCCCCCCCCCCCCCCc1ccc(NC[C@H](O)[C@@H](O)[C@H](O[C@@H]2O[C@H](CO[C@@H]3O[C@H](CO)[C@@H](O)[C@H](O)[C@H]3NC(C)=O)[C@H](O)[C@H](O[C@@H]3O[C@H](CO)[C@@H](O)[C@H](O[C@@H]4O[C@H](CO)[C@H](O)[C@H](O)[C@H]4O)[C@H]3NC(C)=O)[C@H]2O)[C@H](O)CO)cc1 [Galβ3GlcNAcβ3(GlcNAcβ6)Galβ4Glc(red)-HDA] | much weaker or non-existent binding activities | much weaker or non-existent binding activities | – | –
CCCCCCCCCCCCCCCCc1ccc(NC[C@H](O)[C@@H](O)[C@H](O[C@@H]2O[C@H](CO)[C@H](O)[C@H](O[C@@H]3O[C@H](CO)[C@@H](O[C@@H]4O[C@H](CO)[C@H](O)[C@H](O[C@@H]5O[C@H](CO)[C@@H](O)[C@H](O)[C@H]5NC(C)=O)[C@H]4O)[C@H](O)[C@H]3NC(C)=O)[C@H]2O)[C@H](O)CO)cc1 [GlcNAcβ3Galβ4GlcNAcβ3Galβ4Glc(red)-HDA] | had binding activity | had binding activity | – | –
CCCCCCCCCCCCCCCCc1ccc(NC[C@H](O)[C@@H](O)[C@H](O[C@@H]2O[C@H](CO[C@@H]3O[C@H](CO)[C@@H](O[C@@H]4O[C@H](CO)[C@H](O)[C@H](O[C@@H]5O[C@H](CO)[C@@H](O)[C@H](O)[C@H]5NC(C)=O)[C@H]4O)[C@H](O)[C@H]3NC(C)=O)[C@H](O)[C@H](O)[C@H]2O)[C@H](O)CO)cc1 [GlcNAcβ3Galβ4GlcNAcβ6Galβ4Glc(red)HDA, GlcNAcβ3Galβ4GlcNAcβ6Galβ4Glc(red)-HDA] | much weaker or non-existent binding activities | much weaker or non-existent binding activities | – | –
CC(=O)N[C@H]1[C@H](O[C@H]2[C@@H](O)[C@@H](CO)O[C@@H](O[C@H]3[C@H](O)[C@@H](O)C(O)O[C@@H]3CO)[C@@H]2O)O[C@H](CO)[C@@H](O)[C@@H]1O[C@@H]1O[C@H](CO)[C@H](O)[C@H](O)[C@H]1O (some centres unmarked) [Lacto-N-tetraose, Galβ3GlcNAcβ3Galβ4Glc] | – | – | observed to bind | Inhibition of binding to lactotetraosylceramide (diarrheagenic E. coli; lowest densities of glycolipids): able to inhibit
CCCCCCCCCCCCCCCCc1ccc(NC[C@@H](O)[C@@H](O[C@H]2O[C@H](CO)[C@@H](O)[C@H](O)[C@@H]2O)[C@H](O)[C@H](O)CO[C@H]2O[C@H](CO)[C@@H](O)[C@H](O)[C@@H]2O)cc1 [Manα3(Manα6)Man(red)-HDA] | had binding activity | had binding activity | – | Binding of strain CCUG 38068 to glycosphingolipids and neoglycolipids, in words ([1]; listed as Manα3(Manα6)Man): bind; Binding of strain CCUG 38077 to glycosphingolipids and neoglycolipids, in words ([2]; listed as Manα3(Manα6)Man): bind
GalNAcα3GalNAcβ3Galα4Galβ4Glcβ1Cer [No. 14] | – | – | negative | –
GalNAcβ4Galβ4Glcβ1Cer [No. 10] | – | – | observed to bind | –
Galα4Galβ4Glcβ1Cer [No. 8] | – | – | negative | –
